Measurements as given in PMC8524858, “Dual inhibition of αvβ6 and αvβ1 reduces fibrogenesis in lung tissue explants from patients with IPF” (Respiratory Research, 2021).

How the values were obtained:
[1] = tested on: PCLSs prepared from explanted lung tissue from patients with IPF; test: Fibrotic gene expression in PCLSs from IPF lung explants; type: cell-based, human
Description: (§1) PCLSs were generated from explanted lung tissue from patients with IPF and cultured as previously described. Mouse PCLSs were generated and cultured as previously described. Messenger ribonucleic acid (mRNA) levels in lysates prepared from snap-frozen tissue slices were quantified via NanoString PlexSet reagents and nCounter SPRINT Profiler (NanoString; Seattle, WA, USA; Additional file 1: Table S2) or TaqMan primers/probes on a Bio-Rad CFX96 thermocycler (Bio-Rad; Hercules, CA, USA; Additional file 1: Table S3).
Human PCLSs were generated from lung tissue explants from patients with IPF undergoing transplant surgery and cultured based on previously reported methods (E7-E12). Slices of tissue (400 µm) were cut using a Compresstome VF-300-0Z (Precisionary Instruments; Natick, MA, USA).
(§2) Slices from each individual core (human) or mouse were distributed among the treatment groups to control for variability in the fibrotic injury within the tissue. […] After 3 or 7 days in culture, slices were washed and snap-frozen. Viability of sentinel slices on Days 0/1 and 3/7 was determined using WST-1 Cell Proliferation Reagent (Sigma 5015944001; St Louis, MO, USA).
(§3) For all figures (except Fig. 2B, Fig. S2, and Fig. S4), snap-frozen tissue slices were incubated in one-third RLT buffer (Qiagen #79216; Venlo, Netherlands) supplemented with 2 mg/ml proteinase K (Sigma-Aldrich #3115887001; St Louis, MO, USA) at 55 °C for 2 h 45 min, with periodic vortexing to generate ribonucleic acid (RNA)-compatible tissue lysate. This lysate was incubated overnight with probes from a custom fibrosis gene panel and NanoString PlexSet reagents (Table S2). The following day, samples were analyzed on a NanoString nCounter SPRINT Profiler (NanoString; Seattle, WA, USA). Messenger RNA (mRNA) counts were normalized to housekeeping genes (GUSB, HPRT1, RPLP0, and/or POLR1B) and total mRNA counts, relative to vehicle-treated control from the same experiment, are reported.

[2] = tested on: PCLSs prepared from bleomycin-challenged mouse lungs; test: Col1a1 expression in PCLSs from bleomycin-challenged mouse lungs; type: cell-based; details: for IC50: Mus musculus, 72 h, 3 days of treatment, extrapolation from dose-response curve of combined experiments (Fig. S4), read-out: minimum concentration required to reduce Col1a1 mRNA levels by 50%; for effect on Col1a1 gene expression: chronic bleomycin-challenged mouse lungs, 7 days of treatment, nintedanib and pirfenidone at approximate clinical Cmax (Fig. 6C); for concentration for 50% reduction in collagen gene expression relative to concentration approximating Cmax: dose titrations in PCLSs from bleomycin-challenged mouse lungs; for inhibition of collagen mRNA expression: acutely injured mouse lungs, 3 days, PLN-74809 200 nM, GSK3008348 1000 nM, CWHM-12 1000 nM (Fig. 2B)
Description: as §1
Mouse PCLSs were generated and cultured based on previously reported methods (E13). Briefly, mice were challenged with bleomycin (Hospira; Lake Forest, IL, USA or Teva; Toronto, ON, Canada), either acutely with a single dose (3 U/kg or 4 U/kg) or chronically with multiple doses (3 U/kg bleomycin followed by four 1 U/kg challenges at 2-week intervals). Fourteen days after the final bleomycin challenge, lungs were harvested and 200 μm-thick slices were cut using a Compresstome VF-300-0Z (Precisionary Instruments).
as §2, §3
For Figs. 2B, S2, and S4, RNA purification and qPCR were performed by Transcriptic, Inc. (Menlo Park, CA, USA) using a proprietary automated protocol. Briefly, RNA was purified on a KingFisher Flex system (Thermo Fisher) and qPCR was performed on a Bio-Rad CFX96 (Bio-Rad; Hercules, CA, USA) with TaqMan primers/probes (Thermo Fisher) listed in Table S3. Ct values were normalized to housekeeping genes (Rn18sRn45s and Hprt) and reported as ddCT and fold change versus the vehicle-treated samples.

[3] = set-up: method as in PMID 25504994; details: patients with IPF; read-out: approximate clinical maximum observed drug concentration (Cmax); cited from earlier work
[4] = tested on: αvβ1-induced TGF-β activation; test: TGF-β co-culture assay, CHO-αv cells with MLEC luciferase reporter cells; type: cell-based, human; details: integrin αvβ1
Protocol: (§4) SW-β6 cells and MLECs or CHO-αv cells and MLECs were cultured in 96-well plates with test compounds or antibodies for 20 h at 37 °C in a 5% CO2 incubator. […] Measurement of MLEC luciferase production resulting from αvβ6- or αvβ1-mediated TGF-β activation was performed using the Bright-Glo Luciferase Assay System (Promega; Madison, WI, USA) according to manufacturer’s instruction. Luminescence was quantified by a Tecan Spark 10M plate reader. IC50 curves were generated using Dotmatics software suite with five-parameter logistic curve fitting. Geometric mean IC50 was calculated for each compound from multiple independent analyses.

human integrin αvβ1 = target: T1, human integrin αvβ1 (Homo sapiens, UniProt P05556+P06756); test: Integrin ligand-binding assay, αvβ1 (fibronectin ligand)
T1 construct: purchased ACROBiosystems or R&D Systems IT1-H52E1 or 6579-AVB
Protocol: (§5) Integrin ligand-binding assays were performed similar to that previously described.
(§6) Microplates were coated with recombinant human integrins dissolved in PBS (2 µg/ml, overnight at room temperature). Following removal of the coating solution, plates were washed with PBS. Plates were blocked with 200 µL/well of blocking buffer (2% bovine serum albumin [BSA] in PBS) at 37 °C for 1 h. […] Plates were incubated for 2 h at 25 °C, washed, and incubated for 1 h with biotin-labeled anti-fibronectin or anti-LAP antibodies (for αvβ1 or αvβ6/αvβ8, respectively).

human integrin αvβ6 = target: T2, human integrin αvβ6 (Homo sapiens, UniProt P06756+P18564); test: Integrin ligand-binding assay, αvβ6 (LAP ligand)
T2 construct: purchased ACROBiosystems or R&D Systems IT6-H52E1 or 3817-AV
Protocol: as §5, §6

human integrin αvβ3 = target: T3, human integrin αvβ3 (Homo sapiens, UniProt P05106+P06756); test: Integrin ligand-binding assay, αvβ3 (vitronectin ligand)
T3 construct: purchased R&D Systems 3050-AV
Protocol: as §5, §6

human integrin αvβ5 = target: T4, human integrin αvβ5 (Homo sapiens, UniProt P06756+P18084); test: Integrin ligand-binding assay, αvβ5 (vitronectin ligand)
T4 construct: purchased R&D Systems 2528-AV
Protocol: as §5, §6

human integrin αvβ8 = target: T5, human integrin αvβ8 (Homo sapiens, UniProt P06756+P26012); test: Integrin ligand-binding assay, αvβ8 (LAP ligand)
T5 construct: purchased R&D Systems 4135-AV
Protocol: as §5, §6

[5] = target: T6, αvβ6-induced TGF-β activation (Homo sapiens, UniProt P06756+P18564); test: TGF-β co-culture assay, SW-β6 cells with MLEC luciferase reporter cells; type: cell-based; details: integrin αvβ6
T6 construct: expressed in transfected cells; host or cells: SW480 cells stably transfected with β6 (SW-β6), co-cultured with MLEC reporter cells
Protocol: as §4

[6] = 7 days, PLN-74809 200 nM, nintedanib 75 nM, pirfenidone 50 µM, vs DMSO (Fig. 6A)

T1 sequence (P06756 31-992 limits assumed): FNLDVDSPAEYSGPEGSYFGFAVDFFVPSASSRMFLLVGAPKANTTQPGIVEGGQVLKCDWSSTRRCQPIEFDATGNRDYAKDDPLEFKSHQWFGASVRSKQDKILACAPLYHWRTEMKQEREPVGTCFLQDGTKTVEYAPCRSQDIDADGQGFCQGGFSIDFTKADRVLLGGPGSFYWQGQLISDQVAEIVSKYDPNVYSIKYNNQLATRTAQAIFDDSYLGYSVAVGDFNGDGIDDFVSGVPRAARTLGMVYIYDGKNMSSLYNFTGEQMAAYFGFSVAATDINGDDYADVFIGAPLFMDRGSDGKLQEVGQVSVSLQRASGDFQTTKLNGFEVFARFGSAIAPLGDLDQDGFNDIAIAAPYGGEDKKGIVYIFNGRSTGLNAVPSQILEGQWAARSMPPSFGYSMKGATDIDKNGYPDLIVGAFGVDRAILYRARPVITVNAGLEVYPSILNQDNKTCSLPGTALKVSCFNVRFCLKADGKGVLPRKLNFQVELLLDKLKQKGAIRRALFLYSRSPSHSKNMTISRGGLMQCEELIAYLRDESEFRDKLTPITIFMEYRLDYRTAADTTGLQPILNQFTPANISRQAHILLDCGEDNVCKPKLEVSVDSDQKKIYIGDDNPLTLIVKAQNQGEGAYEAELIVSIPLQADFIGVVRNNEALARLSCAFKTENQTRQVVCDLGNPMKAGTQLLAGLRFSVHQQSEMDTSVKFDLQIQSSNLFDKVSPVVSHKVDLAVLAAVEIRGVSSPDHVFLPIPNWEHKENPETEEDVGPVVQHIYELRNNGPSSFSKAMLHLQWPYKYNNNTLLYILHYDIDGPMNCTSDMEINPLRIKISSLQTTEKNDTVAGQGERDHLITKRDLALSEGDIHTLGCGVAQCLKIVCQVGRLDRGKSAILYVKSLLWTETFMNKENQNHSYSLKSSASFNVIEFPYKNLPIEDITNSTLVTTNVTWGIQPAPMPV
T1 sequence (P05556 21-728 limits assumed): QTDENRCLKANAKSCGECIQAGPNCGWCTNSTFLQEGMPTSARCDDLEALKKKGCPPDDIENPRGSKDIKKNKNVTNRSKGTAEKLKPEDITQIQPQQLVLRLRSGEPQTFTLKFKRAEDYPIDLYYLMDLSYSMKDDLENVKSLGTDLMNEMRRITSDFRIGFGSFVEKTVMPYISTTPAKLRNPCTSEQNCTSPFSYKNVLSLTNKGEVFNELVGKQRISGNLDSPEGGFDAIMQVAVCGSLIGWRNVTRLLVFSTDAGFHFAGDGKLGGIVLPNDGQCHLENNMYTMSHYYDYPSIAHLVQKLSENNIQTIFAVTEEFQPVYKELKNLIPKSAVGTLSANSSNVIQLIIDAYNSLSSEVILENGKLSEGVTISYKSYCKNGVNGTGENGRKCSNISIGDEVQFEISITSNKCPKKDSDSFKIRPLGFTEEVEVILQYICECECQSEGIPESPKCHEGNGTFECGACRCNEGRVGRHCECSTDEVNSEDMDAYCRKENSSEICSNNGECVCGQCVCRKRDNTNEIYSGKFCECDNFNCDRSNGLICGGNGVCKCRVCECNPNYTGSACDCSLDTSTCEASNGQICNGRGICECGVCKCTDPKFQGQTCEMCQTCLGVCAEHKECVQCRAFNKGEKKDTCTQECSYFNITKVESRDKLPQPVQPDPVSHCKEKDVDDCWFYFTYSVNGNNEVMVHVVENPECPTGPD
T2 sequence (P06756 31-992 limits assumed): as the sequence (P06756 31-992 limits assumed) above
T2 sequence (P18564 22-707 limits assumed): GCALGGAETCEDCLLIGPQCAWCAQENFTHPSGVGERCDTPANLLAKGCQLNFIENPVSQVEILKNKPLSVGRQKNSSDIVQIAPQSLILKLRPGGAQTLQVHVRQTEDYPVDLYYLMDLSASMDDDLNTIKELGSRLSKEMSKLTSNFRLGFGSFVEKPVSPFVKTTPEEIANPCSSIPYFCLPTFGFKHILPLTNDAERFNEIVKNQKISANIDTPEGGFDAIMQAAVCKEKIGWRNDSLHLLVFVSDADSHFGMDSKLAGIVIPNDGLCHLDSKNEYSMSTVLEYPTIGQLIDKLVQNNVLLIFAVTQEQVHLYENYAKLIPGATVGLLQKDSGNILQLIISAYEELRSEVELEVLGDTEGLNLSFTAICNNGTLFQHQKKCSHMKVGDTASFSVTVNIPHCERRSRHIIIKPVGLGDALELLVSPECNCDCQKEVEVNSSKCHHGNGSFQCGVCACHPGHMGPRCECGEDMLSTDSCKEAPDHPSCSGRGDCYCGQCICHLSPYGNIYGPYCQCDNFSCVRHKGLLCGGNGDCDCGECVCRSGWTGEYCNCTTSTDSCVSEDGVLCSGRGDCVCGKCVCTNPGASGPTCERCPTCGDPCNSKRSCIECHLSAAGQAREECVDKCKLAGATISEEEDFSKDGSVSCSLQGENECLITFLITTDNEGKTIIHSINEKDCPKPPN
T5 sequence (P06756 31-992 limits assumed): as the sequence (P06756 31-992 limits assumed) above
T5 sequence (P26012 43-684 limits assumed): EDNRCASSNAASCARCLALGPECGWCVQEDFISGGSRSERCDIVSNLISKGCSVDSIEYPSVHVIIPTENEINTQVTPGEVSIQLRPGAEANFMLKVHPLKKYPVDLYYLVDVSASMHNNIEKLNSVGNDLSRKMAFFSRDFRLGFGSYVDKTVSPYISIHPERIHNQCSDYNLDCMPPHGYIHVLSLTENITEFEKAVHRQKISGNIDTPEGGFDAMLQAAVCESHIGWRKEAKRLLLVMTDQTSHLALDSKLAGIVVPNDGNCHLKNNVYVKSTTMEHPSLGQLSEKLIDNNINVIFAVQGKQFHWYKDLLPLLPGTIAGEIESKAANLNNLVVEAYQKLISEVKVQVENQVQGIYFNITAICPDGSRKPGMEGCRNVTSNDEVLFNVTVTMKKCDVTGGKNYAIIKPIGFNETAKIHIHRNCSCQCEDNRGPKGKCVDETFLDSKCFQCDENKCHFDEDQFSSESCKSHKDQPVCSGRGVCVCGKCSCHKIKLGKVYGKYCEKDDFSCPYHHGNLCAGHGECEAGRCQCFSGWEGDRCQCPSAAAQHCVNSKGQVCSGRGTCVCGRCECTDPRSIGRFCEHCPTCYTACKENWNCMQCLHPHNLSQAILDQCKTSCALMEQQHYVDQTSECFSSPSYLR
T3 sequence (P06756 31-992 limits assumed): as the sequence (P06756 31-992 limits assumed) above
T3 sequence (P05106 27-718 limits assumed): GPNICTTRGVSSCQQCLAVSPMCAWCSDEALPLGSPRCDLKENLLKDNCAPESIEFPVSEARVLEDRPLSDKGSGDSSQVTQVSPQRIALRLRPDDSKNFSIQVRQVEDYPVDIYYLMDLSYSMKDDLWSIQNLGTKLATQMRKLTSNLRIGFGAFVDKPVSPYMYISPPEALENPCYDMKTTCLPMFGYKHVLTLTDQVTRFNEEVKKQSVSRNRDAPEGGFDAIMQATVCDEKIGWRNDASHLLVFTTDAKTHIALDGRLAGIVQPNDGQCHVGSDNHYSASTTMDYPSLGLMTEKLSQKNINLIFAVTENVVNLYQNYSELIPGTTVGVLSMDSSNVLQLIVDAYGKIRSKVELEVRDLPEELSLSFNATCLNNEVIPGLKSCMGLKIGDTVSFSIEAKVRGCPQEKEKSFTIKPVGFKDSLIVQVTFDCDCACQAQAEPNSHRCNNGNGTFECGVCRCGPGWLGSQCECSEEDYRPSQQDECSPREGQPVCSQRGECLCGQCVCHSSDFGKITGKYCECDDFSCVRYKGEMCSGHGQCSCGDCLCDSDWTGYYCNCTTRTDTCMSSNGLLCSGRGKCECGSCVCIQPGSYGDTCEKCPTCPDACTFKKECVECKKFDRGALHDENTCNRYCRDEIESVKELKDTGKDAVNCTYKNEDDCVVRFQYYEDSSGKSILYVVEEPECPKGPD
T4 sequence (P06756 31-992 limits assumed): as the sequence (P06756 31-992 limits assumed) above
T4 sequence (P18084 24-719 limits assumed): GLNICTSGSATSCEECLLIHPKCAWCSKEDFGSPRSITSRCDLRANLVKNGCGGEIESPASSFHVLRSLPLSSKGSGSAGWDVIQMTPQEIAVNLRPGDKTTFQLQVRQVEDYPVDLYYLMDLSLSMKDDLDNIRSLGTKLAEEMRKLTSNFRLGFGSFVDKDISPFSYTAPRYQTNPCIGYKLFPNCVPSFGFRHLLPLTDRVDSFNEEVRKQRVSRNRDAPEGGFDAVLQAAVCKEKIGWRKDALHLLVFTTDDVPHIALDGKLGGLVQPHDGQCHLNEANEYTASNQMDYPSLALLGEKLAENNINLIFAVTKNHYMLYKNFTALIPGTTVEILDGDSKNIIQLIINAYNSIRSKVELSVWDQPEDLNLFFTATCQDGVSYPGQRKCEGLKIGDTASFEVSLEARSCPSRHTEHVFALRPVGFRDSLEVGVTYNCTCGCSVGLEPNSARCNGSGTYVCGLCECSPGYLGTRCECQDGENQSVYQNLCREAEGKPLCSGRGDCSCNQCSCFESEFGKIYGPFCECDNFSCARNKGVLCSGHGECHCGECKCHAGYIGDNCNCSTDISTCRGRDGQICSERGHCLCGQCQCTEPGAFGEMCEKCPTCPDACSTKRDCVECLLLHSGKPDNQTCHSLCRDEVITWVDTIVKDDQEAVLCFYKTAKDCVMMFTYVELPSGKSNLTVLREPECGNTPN

Row | Compound | reduction of COL1A1 mRNA expression [1, 6] | IC50 [2] | effect on Col1a1 gene expression [2] | concentration for 50% reduction in collagen gene expression relative to concentration approximating Cmax [2] | Cmax [3] | IC50 [4] | inhibition of collagen mRNA expression [2] | other results
1 | COC(=O)c1ccc2c(c1)NC(=O)/C2=C(\Nc1ccc(N(C)C(=O)CN2CCN(C)CC2)cc1)c1ccccc1 [nintedanib] | no effect | 897 nM | did not significantly alter | > 10 × | ~0.075 µM |  |  | 
2 | Cc1ccc(=O)n(-c2ccccc2)c1 [pirfenidone] | no effect | 678000 nM | did not significantly alter | > 10 × | ~50 µM |  |  | 
3 | Cc1cc(C)n(-c2cccc([C@H](CC(=O)O)CN3CC[C@@H](CCc4ccc5c(n4)NCCC5)C3)c2)n1 [GSK3008348, (S)-3-(3-(3,5-Dimethyl-1 H-pyrazol-1-yl)phenyl)-4-((R)-3-(2-(5,6,7,8-tetrahydro-1,8-naphthyridin-2-yl)ethyl)pyrrolidin-1-yl)butanoic acid] |  |  |  |  |  | 17.4 nM | no additional reduction | 
4 | CC(C)(C)c1cc(Br)cc([C@H](CC(=O)O)NC(=O)CNC(=O)c2cc(O)cc(NC3=NCC(O)CN3)c2)c1 (stereo partly shown) [CWHM-12, reference compound] |  |  |  |  |  | 2 nM | no additional reduction | IC50 (human integrin αvβ1): 1.3 nM; Fold selectivity (vs αvβ1) (human integrin αvβ1; ligand binding): 1×; IC50 (human integrin αvβ6): 6.1 nM; Fold selectivity (vs αvβ1) (human integrin αvβ6; ligand binding): 4.7×; IC50 (human integrin αvβ3): 0.7 nM; Fold selectivity (vs αvβ1) (human integrin αvβ3; ligand binding): 0.5×; IC50 (human integrin αvβ5): 5.3 nM; Fold selectivity (vs αvβ1) (human integrin αvβ5; ligand binding): 4.1×; IC50 (human integrin αvβ8): 7.3 nM; Fold selectivity (vs αvβ1) (human integrin αvβ8; ligand binding): 5.6×; Fold selectivity (vs αvβ1) ([4]; TGF-β activation): 1×; Fold selectivity (vs αvβ1) ([5]; TGF-β activation): 159×; IC50 [5]: 318 nM
5 | Cc1cccc(-c2[nH]ncc2-c2ccc(F)c(-c3cnn(CCO)c3)c2)n1 [Compound R-268712, reference compound] |  |  |  |  |  |  |  | reduction of COL1A1 mRNA expression ([1]; 7-day incubation, Compound A 471 nM, 3G9 0.5 µg/ml, PLN-74809 1.82 µM, ALK5i R-268712 1 µM, vs vehicle (Fig. 1A)): ~ 80%
